According to patent US11033506B2, “External skin preparation comprising a core-shell structure” (SEKISUI CHEMICAL CO., LTD., priority 2017, dated 2021):

Assay: Octanol/water partition coefficient
Type: physicochemical
Settings: Log10 (octanol phase/aqueous phase), aqueous buffer solution of pH 7
Source text: Specifically, the octanol/water partition coefficient can be determined by calculation using an equation: Octanol/water partition coefficient=Log10 (concentration in an octanol phase/concentration in an aqueous phase).

Compound | octanol/water partition coefficient | logD (octanol/aqueous buffer solution (pH 7))
O=C(O)c1cc(/N=N/c2ccc(S(=O)(=O)Nc3ccccn3)cc2)ccc1O [sulfasalazine] | 2.3 | 
O=C1CCc2ccc(OCCCCN3CCN(c4cccc(Cl)c4Cl)CC3)cc2N1 [aripiprazole] | 4.5 | 4.5
